Measurements reported in patent publication US8865623B2, “Herbicidally active cyclic diones and derivatives thereof, processes for their preparation, compositions, and method of controlling weeds” (Syngenta Limited, priority 2009, dated 2014).

Legend:
Format in all cases: in vivo
[1] = test system: Lolium perenne (LOLPE); experiment: Pre-emergence herbicidal activity, glasshouse pot test; conditions: Lolium perenne, 312 h; Rate 250 g/ha; pre-emergence spray; evaluated after 13 days; read-out: Pre-emergence activity LOLPE (100=total damage to plant; 0=no damage to plant)
Procedure, shortened: (§1)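 Plants in standard-soil pots, glasshouse at 24/16° C, 14 h photoperiod, 65% humidity. Aqueous spray (acetone/water 50:50 formulation, 0.5% Tween 20) applied pre-emergence at day 1 or post-emergence at day 8. Percent damage recorded after 13 days.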

[2] = test system: Alopecurus myosuroides (ALOMY); experiment: as above; conditions: Alopecurus myosuroides, 312 h; Rate 250 g/ha; pre-emergence spray; evaluated after 13 days; read-out: Pre-emergence activity ALOMY (100=total damage to plant; 0=no damage to plant)
Procedure, shortened: as §1

[3] = test system: Avena fatua (AVEFA); experiment: as above; conditions: Avena fatua, 312 h; Rate 250 g/ha; pre-emergence spray; evaluated after 13 days; read-out: Pre-emergence activity AVEFA (100=total damage to plant; 0=no damage to plant)
Procedure, shortened: as §1

[4] = test system: Echinochloa crus-galli (ECHCG); experiment: as above; conditions: Echinochloa crus-galli, 312 h; Rate 250 g/ha; pre-emergence spray; evaluated after 13 days; read-out: Pre-emergence activity ECHCG (100=total damage to plant; 0=no damage to plant)
Procedure, shortened: as §1

[5] = test system: Lolium perenne (LOLPE); experiment: Post-emergence herbicidal activity, glasshouse pot test; conditions: Lolium perenne, 312 h, rate 250 g/ha, evaluated after 13 days, glasshouse, read-out: Post-emergence activity LOLPE (100=total damage to plant; 0=no damage to plant)
Procedure, shortened: as §1

[6] = test system: Alopecurus myosuroides (ALOMY); experiment: as above; conditions: Alopecurus myosuroides, 312 h, rate 250 g/ha, evaluated after 13 days, glasshouse, read-out: Post-emergence activity ALOMY (100=total damage to plant; 0=no damage to plant)
Procedure, shortened: as §1

[7] = test system: Avena fatua (AVEFA); experiment: as above; conditions: Avena fatua, 312 h, rate 250 g/ha, evaluated after 13 days, glasshouse, read-out: Post-emergence activity AVEFA (100=total damage to plant; 0=no damage to plant)
Procedure, shortened: as §1

[8] = test system: Echinochloa crus-galli (ECHCG); experiment: as above; conditions: Echinochloa crus-galli, 312 h, rate 250 g/ha, evaluated after 13 days, glasshouse, read-out: Post-emergence activity ECHCG (100=total damage to plant; 0=no damage to plant)
Procedure, shortened: as §1

Compound | pest or weed control at 250 g/ha [1] | pest or weed control at 250 g/ha [2] | pest or weed control at 250 g/ha [3] | pest or weed control at 250 g/ha [4] | pest or weed control at 250 g/ha [5] | pest or weed control at 250 g/ha [6] | pest or weed control at 250 g/ha [7] | pest or weed control at 250 g/ha [8]
CCc1ccc(Oc2ncc(C(F)(F)F)cc2F)cc1C1=C(O)C(C)(C)OC(C)(C)C1=O [Example A-62] | 100% | 100% | 100% | 100% | 100% | 100% | 100% | 100%
CCc1ccc(Oc2nc(F)c(F)c(C)c2F)cc1C1=C(O)C(C)(C)OC(C)(C)C1=O [Example A-59] | 100% | 80% | 70% | 100% | 70% | 80% | 70% | 100%
CCc1ccc(Oc2cc(Cl)nc(C)n2)cc1C1=C(O)C(C)(C)OC(C)(C)C1=O [Example A-130] | 0% | 0% | 0% | 30% | 10% | 10% | 0% | 40%
CCc1ccc(Oc2ncc(Cl)cn2)cc1C1=C(O)CC2(CCOCC2)CC1=O [Example A-263] | 50% | 60% | 20% | 100% | 60% | 100% | 90% | 100%
CCc1ccc(Oc2ccc([N+](=O)[O-])c(C#N)c2)cc1C1=C(O)C(C)(C)OC(C)(C)C1=O [Example A-196] | 0% | 0% | 0% | 0% | 10% | 0% | 0% | 20%
CCc1ccc(Oc2ccc3ccccc3n2)cc1C1=C(O)C(C)(C)OC(C)(C)C1=O [Example A-223] | 90% | 80% | 50% | 100% | 90% | 100% | 60% | 100%
CCc1ccc(Oc2ccc(F)cc2)cc1C1=C(O)CCCC1=O [Example A-29] | 30% | 0% | 10% | 40% | 10% | 0% | 0% | 70%
CCc1ccc(Oc2ccc([N+](=O)[O-])cn2)cc1C1=C(O)C(C)(C)OC(C)(C)C1=O [Example A-149] | 20% | 10% | 10% | 60% | 30% | 10% | 30% | 50%
CCc1ccc(Oc2ncnc3sccc23)cc1C1=C(O)C(C)(C)OC(C)(C)C1=O [Example A-126] | 0% | 0% | 0% | 10% | 10% | 10% | 20% | 50%
CCc1ccc(Oc2ccc(C(F)(F)F)cc2[N+](=O)[O-])cc1C1=C(O)C(C)(C)OC(C)(C)C1=O [Example A-203] | 90% | 20% | 30% | 50% | 90% | 90% | 100% | 90%
